Laboratory results from patent US20220152031A1, “PYRIDAZINONES AND METHODS OF USE THEREOF” (Goldfinch Bio, Inc., priority 2019, published 2022).

The molecules below were run against T1, TRPC5 (Homo sapiens, UniProt Q9UL62) (assay: TRPC5 activity assay (FLIPR calcium fluorescence, HEK-TREx hTRPC5 cells)). Conditions: Table 6, HEK-TREx hTRPC5; read-out: hTRPC5-FLIPR IC50.
T1 construct: expressed in transfected cells
T1 sequence (Q9UL62 1-973): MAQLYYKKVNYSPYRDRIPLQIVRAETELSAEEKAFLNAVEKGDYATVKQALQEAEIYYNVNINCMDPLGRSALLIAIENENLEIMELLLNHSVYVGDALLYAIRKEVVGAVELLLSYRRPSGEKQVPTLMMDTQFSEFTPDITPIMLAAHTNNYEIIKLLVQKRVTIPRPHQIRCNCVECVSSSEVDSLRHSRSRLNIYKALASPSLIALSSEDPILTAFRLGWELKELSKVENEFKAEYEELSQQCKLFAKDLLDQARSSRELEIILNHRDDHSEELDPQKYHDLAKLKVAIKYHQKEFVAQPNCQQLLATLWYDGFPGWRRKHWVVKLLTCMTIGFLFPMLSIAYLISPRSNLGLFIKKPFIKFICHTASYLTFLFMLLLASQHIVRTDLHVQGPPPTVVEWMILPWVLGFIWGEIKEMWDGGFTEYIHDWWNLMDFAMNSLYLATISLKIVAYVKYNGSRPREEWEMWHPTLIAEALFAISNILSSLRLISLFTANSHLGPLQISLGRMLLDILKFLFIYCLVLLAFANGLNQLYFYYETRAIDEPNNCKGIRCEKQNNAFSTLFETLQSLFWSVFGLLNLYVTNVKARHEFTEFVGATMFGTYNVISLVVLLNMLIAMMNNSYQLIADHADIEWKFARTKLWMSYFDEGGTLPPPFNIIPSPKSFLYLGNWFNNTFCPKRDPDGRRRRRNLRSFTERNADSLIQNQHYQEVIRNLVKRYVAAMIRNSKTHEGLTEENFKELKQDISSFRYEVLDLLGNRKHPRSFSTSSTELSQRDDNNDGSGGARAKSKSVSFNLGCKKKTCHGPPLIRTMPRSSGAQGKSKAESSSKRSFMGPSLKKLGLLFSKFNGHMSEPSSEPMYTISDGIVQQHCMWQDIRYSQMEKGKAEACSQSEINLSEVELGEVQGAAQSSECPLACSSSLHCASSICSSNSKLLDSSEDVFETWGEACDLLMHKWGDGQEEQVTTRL
Type: cell-based
Method: ICLN-1633 cells (HEK-TREx hTRPC5) expressing TRPC5 were generated as follows. Commercially available HekTrex-293 cells were seeded at 0.7×10^6 cells/well in a 1×6-well plate 24 hrs prior to transfection using 2 mL cell growth media containing no antibiotics (lx DMEM/high glucose (Hyclone #SH30022.02); 10% fetal bovine serum (Sigma) 2 mM sodium pyruvate, 10 mM HEPES). […] On day 2, 2 μg of plasmid DNA plus 6 μl of Xtreme-GENE HP reagent in Optimem (200 μl total volume) was prepared and incubated for 15 min at room temperature. This plasmid solution was then gently overlayed dropwise onto each well and the plate was gently swirled to mix complex with the media for approximately 30 seconds. Transfected cells were incubated at 37° C. in a 10% CO2 incubator for 24 hrs. The transfected cells were harvested and transferred into 2×150 mm dishes containing cell growth media with no antibiotics at 37° C.
The next day selection was initiated to generate a stable pool by adding cell growth media containing 150 μg/mL Hygromycin and 5 μg/mL Blasticidin and cells were allowed to grow. Media with the selection agent was changed every 1-2 days as needed to remove dead cells. After 7 days, the hygromycin concentration was reduced to 75 μg/mL and cells growth was allowed to continue.
Single clones were selected as follows. The stable pool was diluted to 10 cells/mL and seeded (100 μl/well) into 24×96 well plates (˜1 cell/well) and allowed to grow for 7 days in cell growth media. Fresh media (100 μl) was added and the cells allowed to grow for another 1-2 weeks and then stored frozen or used immediately.
10-point dose response curves were generated using the Echo-550 acoustic dispenser. Compound source plates were made by serially diluting compound stocks to create 10 mM, 1 mM, and 0.1 mM solutions in DMSO into Echo certified LDV plates. The Echo then serially spotted 100% DMSO stock solutions into source dose response plates to generate a 4-fold dilution scheme. 100% DMSO was added to the spotted dose response plates to bring the final volume to 5 μl. 300 nl of the dose response stock plate was then spotted into pre-incubation and stimulation assay plates. 50 μl of pre-incubation buffer and 100 μl of stimulation buffer was then added to the plates resulting in a final assay test concentration range of 30 μM to 0.0001 μM with a final DMSO concentration of 0.3%.
Human ICLN-1633 cells expressing were plated onto 384 well, black PDL-coated microplates and maintained in TRPC5 growth media the day prior to use for experiments. TRPC5 expression was induced by the application of 1 μg/mL tetracycline at the time of plating. […] Cells are incubated at room temperature, protected from light, for 60-90 minutes. After the incubation period, the dye is removed and replaced with 10 μl of EBSS. Cell, pre-incubation and stimulation plates are loaded onto the FLIPR-II and the assay is initiated. The FLIPR measures a 10 second baseline and then adds 10 μl of 2× compounds (or controls). Changes in fluorescence are monitored for an additional 5 minutes. After the 5 minute pre-incubation, 20 μl of 2× Riluzole (with 1× compound or controls) is added to the cell plate. The final Riluzole stimulation concentration in the assay is 30 μM. After the Riluzole addition, changes in fluorescence are monitored for an additional 5 minutes.
Compound modulation of TRPC5 calcium response was determined as follows. After the Englerin A, fluorescence was monitored for a 5-minute period. The maximum relative fluorescence response (minus the control response of 1 μM of an internal control compound known to maximally block TRPC5 calcium response, the “REF INHIB” in the formula below) was captured and exported from the FLIPR.
Compound effect is calculated as % inhibition using the following formula: […]
wherein “RFU” is the relative fluorescent units.

IC50 [nM]	SMILES
0.01 to 1000	CCc1ncccc1[C@H](C)N1CCN(c2cn[nH]c(=O)c2Cl)CC1 [LY, 4-chloro-5-[4-[(1S)-1-(2-ethylpyridin-3-yl)ethyl]piperazin-1-yl]-2,3-dihydropyridazin-3-one]
0.01 to 1000	CCc1ncccc1N(CC)C1CCN(c2cn[nH]c(=O)c2Cl)CC1 [LW, 4-chloro-5-[4-[ethyl(2-ethylpyridin-3-yl)amino]piperidin-1-yl]-2,3-dihydropyridazin-3-one]
0.01 to 1000	CC(c1ccc(F)cc1C(F)(F)F)N1CCN(c2cn[nH]c(=O)c2Cl)CC1=O (single isomer, unassigned) [MF]

Same assay, conditions: Table 7, HEK-TREx hTRPC5; read-out: TRPC5-FLIPR IC50

IC50 [nM]	SMILES
0.01 to 1000	CN1CCN(Cc2nn(Cc3ccccc3C(F)F)c3c2CN(c2cn[nH]c(=O)c2Cl)CC3)CC1 [OU, 4-Chloro-5-(1-[[2-(difluoromethyl)phenyl]methyl]-3-[(4-methylpiperazin-1-yl)methyl]-1H,4H,5H,6H,7H-pyrazolo[4,3-c]pyridin-5-yl)-2,3-dihydropyridazin-3-one]
0.01 to 1000	CN(C)C(=O)c1nc2c(n1Cc1ccccc1C(F)(F)F)CCN(c1cn[nH]c(=O)c1Cl)C2 [PW]
0.01 to 1000	NC(=O)c1nn(Cc2ccccc2C(F)(F)F)c2c1CN(c1cn[nH]c(=O)c1Cl)CC2 [OP, 5-(5-Chloro-6-oxo-1,6-dihydropyridazin-4-yl)-1-[[2-(trifluoromethyl)phenyl]methyl]-1H,4H,5H,6H,7H-pyrazolo[4,3-c]pyridine-3-carboxamide]
0.01 to 1000	CN(c1ncc2c(n1)CN(c1cn[nH]c(=O)c1Cl)C2)c1ccccc1C(F)(F)F [QM]
0.01 to 1000	CN1CCN(C(=O)c2nn(Cc3ccccc3C(F)F)c3c2CN(c2cn[nH]c(=O)c2Cl)CC3)CC1 [OM]
0.01 to 1000	C[C@@H]1Cc2c(nnn2[C@H](C)c2ccccc2C(F)(F)F)CN1c1cn[nH]c(=O)c1Cl [MX, 4-chloro-5-[(6R)-6-methyl-1-[(1R)-1-[2-(trifluoromethyl)phenyl]ethyl]-1H,4H,5H,6H,7H-[1,2,3]triazolo[4,5-c]pyridin-5-yl]-2,3-dihydropyridazin-3-one]
